From patent publication US7462600B2, “Macrolides” (Pfizer Inc, priority 2004, dated 2008)
Converted amounts (≈) assume the structure as drawn.

What was measured:
Format in all cases: cell-based
[1] = tested on: Streptococcus pneumoniae 1175; conditions: Streptococcus pneumoniae 1175; microtiter broth dilution
How it was run: (§1)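 Where available, resistant strains were tested alongside the susceptible parent they derive from. The MIC, determined by tray-based broth dilution and NCCLS M100-S14 interpretation, served as the comparison value.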

[2] = tested on: Streptococcus pneumoniae 1095; conditions: Streptococcus pneumoniae 1095; microtiter broth dilution
How it was run: as §1

[3] = tested on: Streptococcus pneumoniae 1016; assay: MIC, microtiter broth dilution (NCCLS M100-S14), S. pneumoniae 1016 (susceptible); conditions: Streptococcus pneumoniae 1016
How it was run: as §1

[4] = tested on: Haemophilus influenzae 1218; assay: MIC, microtiter broth dilution (NCCLS M100-S14), H. influenzae 1218 (susceptible); conditions: Haemophilus influenzae 1218
How it was run: as §1

[5] = tested on: Streptococcus pyogenes 1079; assay: MIC, microtiter broth dilution (NCCLS M100-S14), S. pyogenes 1079 (ermB); conditions: Streptococcus pyogenes 1079
How it was run: as §1

Compound | MIC S. pneumo. 1175 [1] | MIC S. pneumo. 1095 [2] | MIC S. pneumo. 1016 [3] | MIC H. influenzae 1218 [4] | MIC S. pyogenes 1079 [5]
CCC1OC(=O)C(C)C(=O)C(C)C(OC2OC(C)CC(N(C)C)C2O)C(C)(OC)CC(C)C(=O)C(C)C2N(C3CN(S(=O)(=O)c4cccc(Oc5ccc(F)cc5)c4)C3)C(=O)OC12C (stereo not drawn) [Example 3.110, 3-descladinosyl-11,12-dideoxy-6-O-methyl-3-oxo-12,11-(oxycarbonyl-(1-(3-(4-fluorophenoxy)benzene-1-sulfonyl)-azetidin-3-yl)-imino)erythromycin A] | <0.063 µg/mL | <0.063 µg/mL | <0.063 µg/mL | 2 µg/mL (≈ 2.18 µM) | 4 µg/mL (≈ 4.36 µM)
CCC1OC(=O)C(C)C(=O)C(C)C(OC2OC(C)CC(N(C)C)C2O)C(C)(OC)CC(C)C(=O)C(C)C2N(C3CN(S(=O)(=O)c4ccc(C)c5ncccc45)C3)C(=O)OC12C (stereo not drawn) [Example 3.111, 3-descladinosyl-11,12-dideoxy-6-O-methyl-3-oxo-12,11-(oxycarbonyl-(1-(8-methylquinoline-5-sulfonyl)-azetidin-3-yl)-imino)erythromycin A] | <0.063 µg/mL | <0.063 µg/mL | <0.063 µg/mL | 0.5 µg/mL (≈ 0.573 µM) | 1 µg/mL (≈ 1.15 µM)
CCC1OC(=O)C(C)C(=O)C(C)C(OC2OC(C)CC(N(C)C)C2O)C(C)(OC)CC(C)C(=O)C(C)C2N(C3CN(S(=O)(=O)c4ccc(OC)c5nccnc45)C3)C(=O)OC12C (stereo not drawn) [Example 3.112, 3-descladinosyl-11,12-dideoxy-6-O-methyl-3-oxo-12,11-(oxycarbonyl-(1-(8-methoxyquinoxaline-5-sulfonyl)-azetidin-3-yl)-imino)erythromycin A] | 0.25 µg/mL (≈ 0.281 µM) | <0.063 µg/mL | <0.063 µg/mL | 2 µg/mL (≈ 2.25 µM) | 0.125 µg/mL (≈ 0.14 µM)
CCC1OC(=O)C(C)C(=O)C(C)C(OC2OC(C)CC(N(C)C)C2O)C(C)(OC)CC(C)C(=O)C(C)C2N(C3CN(S(=O)(=O)c4ccc(OC(F)F)c5ncccc45)C3)C(=O)OC12C (stereo not drawn) [Example 3.113, 3-descladinosyl-11,12-dideoxy-6-O-methyl-3-oxo-12,11-(oxycarbonyl-(1-(8-(difluoromethoxy)quinoline-5-sulfonyl)-azetidin-3-yl)-imino)-erythromycin A] | <0.063 µg/mL | <0.063 µg/mL | <0.063 µg/mL | 1 µg/mL (≈ 1.08 µM) | 0.5 µg/mL (≈ 0.541 µM)
CCC1OC(=O)C(C)C(=O)C(C)C(OC2OC(C)CC(N(C)C)C2O)C(C)(OC)CC(C)C(=O)C(C)C2N(C3CN(S(=O)(=O)c4ccc(C)c5nccnc45)C3)C(=O)OC12C (stereo not drawn) [Example 3.114, 3-descladinosyl-11,12-dideoxy-6-O-methyl-3-oxo-12,11-(oxycarbonyl-(1-(8-methylquinoxaline-5-sulfonyl)-azetidin-3-yl)-imino)-erythromycin A] | <0.063 µg/mL | 0.125 µg/mL (≈ 0.143 µM) | <0.063 µg/mL | 0.25 µg/mL (≈ 0.286 µM) | 1 µg/mL (≈ 1.14 µM)
CCC1OC(=O)C(C)C(=O)C(C)C(OC2OC(C)CC(N(C)C)C2O)C(C)(OC)CC(C)C(=O)C(C)C2N(C3CN(S(=O)(=O)c4ccc(N5CCOC5=O)cc4)C3)C(=O)OC12C (stereo not drawn) [Example 3.115, 3-descladinosyl-11,12-dideoxy-6-O-methyl-3-oxo-12,11-(oxycarbonyl-(1-(4-(2-oxooxazolidin-3-yl)benzene-1-sulfonyl)-azetidin-3-yl)-imino)-erythromycin A] | 0.125 µg/mL (≈ 0.14 µM) | <0.063 µg/mL | <0.063 µg/mL | 1 µg/mL (≈ 1.12 µM) | 0.25 µg/mL (≈ 0.28 µM)
CCC1OC(=O)C(C)C(=O)C(C)C(OC2OC(C)CC(N(C)C)C2O)C(C)(OC)CC(C)C(=O)C(C)C2N(C3CN(S(=O)(=O)c4ccc5c(c4)N(C)S(=O)(=O)N5C)C3)C(=O)OC12C (stereo not drawn) [Example 3.116, 3-descladinosyl-11,12-dideoxy-6-O-methyl-3-oxo-12,11-(oxycarbonyl-(1-(1,3-dimethyl-2,1,3-benzothiadiazole-2,2-dioxide-0-5-sulfonyl)-azetidin-3-yl)-imino)-erythromycin A] | <0.063 µg/mL | <0.063 µg/mL | <0.063 µg/mL | 0.5 µg/mL (≈ 0.539 µM) | 0.5 µg/mL (≈ 0.539 µM)
CCc1nn(C)c2ccc(S(=O)(=O)N3CC(N4C(=O)OC5(C)C(CC)OC(=O)C(C)C(=O)C(C)C(OC6OC(C)CC(N(C)C)C6O)C(C)(OC)CC(C)C(=O)C(C)C45)C3)cc12 (stereo not drawn) [Example 3.117, 3-descladinosyl-11,12-dideoxy-6-O-methyl-3-oxo-12,11-(oxycarbonyl-(1-(3-ethyl-1-methyl-1H-indazole-5-sulfonyl)-azetidin-3-yl)-imino)-erythromycin A] | <0.063 µg/mL | <0.063 µg/mL | <0.063 µg/mL | 1 µg/mL (≈ 1.12 µM) | 1 µg/mL (≈ 1.12 µM)
CCC1OC(=O)C(C)C(=O)C(C)C(OC2OC(C)CC(N(C)C)C2O)C(C)(OC)CC(C)C(=O)C(C)C2N(CC3CN(C(c4ccccc4)c4ccccc4)C3)C(=O)OC12C (stereo not drawn) [Example 4.01, 3-descladinosyl-11,12-dideoxy-6-O-methyl-3-oxo-12,11-(oxycarbonyl-(1-(benzhydryl)-(azetidin-3-yl)-methyl)-imino)-erythromycin A] | 0.39 µg/mL (≈ 0.46 µM) | 0.39 µg/mL (≈ 0.46 µM) | <0.00 µg/mL | 6.25 µg/mL (≈ 7.37 µM) | 6.25 µg/mL (≈ 7.37 µM)
CCC1OC(=O)C(C)C(=O)C(C)C(OC2OC(C)CC(N(C)C)C2O)C(C)(OC)CC(C)C(=O)C(C)C2N(CC3CN(Cc4ccc5ncccc5c4)C3)C(=O)OC12C (stereo not drawn) [Example 4.14, 3-descladinosyl-11,12-dideoxy-6-O-methyl-3-oxo-12,11-(oxycarbonyl-(1-((quinolin-6-yl)-methyl)-(azetidin-3-yl)-methyl)-imino)-erythromycin A] | <0.06 µg/mL | <0.06 µg/mL | <0.06 µg/mL | 0.5 µg/mL (≈ 0.608 µM) | 8 µg/mL (≈ 9.72 µM)
CCC1OC(=O)C(C)C(=O)C(C)C(OC2OC(C)CC(N(C)C)C2O)C(C)(OC)CC(C)C(=O)C(C)C2N(CC3CN(Cc4c[nH]c5ncccc45)C3)C(=O)OC12C (stereo not drawn) [Example 4.18, 3-descladinosyl-11,12-dideoxy-6-O-methyl-3-oxo-12,11-(oxycarbonyl-(1-((1H-pyrrolo[2,3-b]pyridin-3-yl)-methyl)-(azetidin-3-yl)-methyl)-imino)-erythromycin A] | 0.5 µg/mL (≈ 0.616 µM) | 0.12 µg/mL (≈ 0.148 µM) | <0.06 µg/mL | 0.25 µg/mL (≈ 0.308 µM) | 8 µg/mL (≈ 9.85 µM)
CCC1OC(=O)C(C)C(=O)C(C)C(OC2OC(C)CC(N(C)C)C2O)C(C)(OC)CC(C)C(=O)C(C)C2N(CC3CN(Cc4c(C)ccc5nc[nH]c45)C3)C(=O)OC12C.O=CO (stereo not drawn) [Example 4.44, 3-descladinosyl-11,12-dideoxy-6-O-methyl-3-oxo-12,11-(oxycarbonyl-(1-((6-methyl-1H-benzo[d]imidazol-7-yl)-methyl)-(azetidin-3-yl)-methyl)-imino)-erythromycin A] | <0.06 µg/mL | 0.5 µg/mL | <0.06 µg/mL | 0.25 µg/mL | 8 µg/mL
CC[C@H]1OC(=O)[C@H](C)[C@@H](OC(=O)N2CCCC2)[C@H](C)[C@@H](O[C@@H]2O[C@H](C)C[C@H](N(C)C)[C@H]2O)[C@](C)(OC)C[C@@H](C)C(=O)[C@H](C)[C@H]2N(CC3CN(C(=O)c4ccnc5ccccc45)C3)C(=O)O[C@]12C [Example 5.01, 2-R^2: quinoline-4-carboxyl; R^#: pyrrolidin-1-yl] | <0.06 µg/mL | 0.5 µg/mL (≈ 0.534 µM) | <0.06 µg/mL | 2 µg/mL (≈ 2.14 µM) | 64 µg/mL (≈ 68.4 µM)
CC[C@H]1OC(=O)[C@H](C)[C@@H](OC(=O)N2CCCC2C)[C@H](C)[C@@H](O[C@@H]2O[C@H](C)C[C@H](N(C)C)[C@H]2O)[C@](C)(OC)C[C@@H](C)C(=O)[C@H](C)[C@H]2N(CC3CN(Cc4c[nH]c5ncccc45)C3)C(=O)O[C@]12C (stereo partly drawn) [Example 5.03, 3-descladinosyl-11,12-dideoxy-6-O-methyl-12,11-(oxycarbonyl-(1-((1H-pyrrolo[2,3-b]pyridin-3-yl)-methyl)-(azetidin-3-yl)-methyl)-imino)-3-((2-methylpyrrolidine)-1-carbonyl)-erythromycin A] | <0.06 µg/mL | <0.06 µg/mL | <0.06 µg/mL | 2 µg/mL (≈ 2.16 µM) | 0.5 µg/mL (≈ 0.54 µM)
CC[C@H]1OC(=O)[C@H](C)[C@@H](OC(=O)N2CCCC2C)[C@H](C)[C@@H](O[C@@H]2O[C@H](C)C[C@H](N(C)C)[C@H]2O)[C@](C)(OC)C[C@@H](C)C(=O)[C@H](C)[C@H]2N(CC3CN(Cc4cccc5cccnc45)C3)C(=O)O[C@]12C (stereo partly drawn) [Example 5.04] | <0.06 µg/mL | <0.06 µg/mL | <0.06 µg/mL | 1 µg/mL (≈ 1.07 µM) | 4 µg/mL (≈ 4.27 µM)
